In this data set the test system is CCRIS mutagenicity, Ames/micronucleus/aberration tests. Briefly: CCRIS mutagenicity studies.
The mark [1] stands for this setting: Test System: AMES SALMONELLA TYPHIMURIUM, Strain/Indicator: TA98, Metabolic Activation: NONE, Method: STANDARD PLATE.
The mark [2] stands for this setting: Test System: AMES SALMONELLA TYPHIMURIUM, Strain/Indicator: TA1535, Metabolic Activation: NONE, Method: STANDARD PLATE.
Setting [3] is: Test System: AMES SALMONELLA TYPHIMURIUM, Strain/Indicator: TA1535, Metabolic Activation: RAT, LIVER, S-9, AROCLOR 1254, Method: STANDARD PLATE.
[4] abbreviates: Test System: AMES SALMONELLA TYPHIMURIUM, Strain/Indicator: TA1537, Metabolic Activation: NONE, Method: STANDARD PLATE.
[5] abbreviates: Test System: AMES SALMONELLA TYPHIMURIUM, Strain/Indicator: TA1537, Metabolic Activation: RAT, LIVER, S-9, AROCLOR 1254, Method: STANDARD PLATE.
[6] abbreviates: Test System: AMES SALMONELLA TYPHIMURIUM, Strain/Indicator: TA1538, Metabolic Activation: NONE, Method: STANDARD PLATE.
Where [7] appears, read: Test System: AMES SALMONELLA TYPHIMURIUM, Strain/Indicator: TA1538, Metabolic Activation: RAT, LIVER, S-9, AROCLOR 1254, Method: STANDARD PLATE.
Setting [8] is: Test System: AMES SALMONELLA TYPHIMURIUM, Strain/Indicator: TA98, Metabolic Activation: RAT, LIVER, S-9, AROCLOR 1254, Method: STANDARD PLATE.
The mark [9] stands for this setting: Test System: AMES SALMONELLA TYPHIMURIUM, Strain/Indicator: TA100, Metabolic Activation: RAT, LIVER, S-9, AROCLOR 1254, Method: STANDARD PLATE.
Where [10] appears, read: Test System: MOUSE LYMPHOMA, Strain/Indicator: L5178Y (TK+/TK-), Metabolic Activation: NONE, Method: SUSPENSION/PLATE.

Active and inactive are the calls of the source. How the calls were made is not given here.

`C[n+]1c2ccccc2nc2ccccc21`: the mutagenic call is, setting by setting: under setting [1], “inactive; negative”; (Test System: AMES SALMONELLA TYPHIMURIUM, Strain/Indicator: TA102, Metabolic Activation: NONE, Method: PREINCUBATION) “inactive; negative”; (Test System: AMES SALMONELLA TYPHIMURIUM, Strain/Indicator: TA102, Metabolic Activation: NONE, Method: STANDARD PLATE) “inactive; negative”; (Test System: AMES SALMONELLA TYPHIMURIUM, Strain/Indicator: TA1535, Metabolic Activation: NONE, Method: PREINCUBATION) “inactive; negative”; under setting [2], “inactive; negative”; under setting [3], “inactive; negative”. In addition, the mutagenic call by setting is: under setting [4], “active; positive”; under setting [5], “active; positive”; under setting [6], “inactive; negative”; under setting [7], “inactive; negative”; (Test System: AMES SALMONELLA TYPHIMURIUM, Strain/Indicator: TA1975, Metabolic Activation: NONE, Method: PREINCUBATION) “inactive; negative”; (Test System: AMES SALMONELLA TYPHIMURIUM, Strain/Indicator: TA2638, Metabolic Activation: NONE, Method: STANDARD PLATE) “inactive; negative”. The mutagenic call is, setting by setting: (Test System: AMES SALMONELLA TYPHIMURIUM, Strain/Indicator: YG3001, Metabolic Activation: NONE, Method: PREINCUBATION) “inactive; negative”; (Test System: AMES SALMONELLA TYPHIMURIUM, Strain/Indicator: YG3002, Metabolic Activation: NONE, Method: PREINCUBATION) “inactive; negative”; (Test System: AMES SALMONELLA TYPHIMURIUM, Strain/Indicator: YG3003, Metabolic Activation: NONE, Method: PREINCUBATION) “inactive; negative”; (Test System: E. COLI, Strain/Indicator: WP2 (PKM101), Metabolic Activation: NONE, Method: STANDARD PLATE) “inactive; negative”; (Test System: E. COLI, Strain/Indicator: WP2 UVRA (PKM101), Metabolic Activation: NONE, Method: STANDARD PLATE) “active; positive”.
Consider `CCC(=O)N(c1ccc(Cl)c(Cl)c1)[C@@H]1CCC[C@H]1N(C)C`, for which the mutagenic call is “inactive; negative” under setting [1]; “inactive; negative” under setting [8]; “inactive; negative” (Test System: AMES SALMONELLA TYPHIMURIUM, Strain/Indicator: TA100, Metabolic Activation: NONE, Method: STANDARD PLATE); “inactive; negative” under setting [9]; “inactive; negative” under setting [2]; “inactive; negative” under setting [3]. Also, the mutagenic call runs as follows: under setting [4], “inactive; negative”; under setting [5], “inactive; negative”; under setting [6], “inactive; negative”; under setting [7], “inactive; negative”; (Test System: CHINESE HAMSTER OVARY, Strain/Indicator: CHO-K1-BH4 (HGPRT), Metabolic Activation: NONE) “inactive; negative”; (Test System: CHINESE HAMSTER V-79, Strain/Indicator: V-79/6-THIOGUANINE, Metabolic Activation: NONE) “inactive; negative”. In addition, the mutagenic call reads like this: (Test System: CHINESE HAMSTER V-79, Strain/Indicator: V-79/6-THIOGUANINE, Metabolic Activation: RAT, LIVER, S-9, AROCLOR 1254) “inactive; negative”; (Test System: UDS RODENT HEPATOCYTES, Strain/Indicator: THY INCORP, Metabolic Activation: NONE) “inactive; negative”.
As for `CN(C)Nc1nc(-c2ccc([N+](=O)[O-])o2)cs1`, the mutagenic call (Test System: AMES SALMONELLA TYPHIMURIUM, Strain/Indicator: TA100, Metabolic Activation: RAT, LIVER, S-9, KC500 OR PHENOBARBITAL, Method: LIQUID SUSPENSION) is “active; positive” and the mutagenic call (Test System: E. COLI WP2, Strain/Indicator: WP2, Metabolic Activation: NONE, Method: SPOT) is “active; positive”.
As to `Cc1ccc(N(C)C)cc1`, the mutagenic call (Test System: AMES SALMONELLA TYPHIMURIUM, Strain/Indicator: TA97, Metabolic Activation: HAMSTER, LIVER, S-9, AROCLOR 1254 (10 OR 30%), Method: PREINCUBATION) is “inactive; negative”; the mutagenic call (Test System: AMES SALMONELLA TYPHIMURIUM, Strain/Indicator: TA97, Metabolic Activation: NONE, Method: PREINCUBATION) is “inactive; negative”; the mutagenic call (Test System: AMES SALMONELLA TYPHIMURIUM, Strain/Indicator: TA97, Metabolic Activation: RAT, LIVER, S-9, AROCLOR 1254 (10 OR 30%), Method: PREINCUBATION) is “inactive; negative”; the mutagenic call (Test System: AMES SALMONELLA TYPHIMURIUM, Strain/Indicator: TA98, Metabolic Activation: HAMSTER, LIVER, S-9, AROCLOR 1254 (10 OR 30%), Method: PREINCUBATION) is “inactive; negative”; the mutagenic call (Test System: AMES SALMONELLA TYPHIMURIUM, Strain/Indicator: TA98, Metabolic Activation: NONE, Method: PREINCUBATION) was “inactive; negative”; the mutagenic call (Test System: AMES SALMONELLA TYPHIMURIUM, Strain/Indicator: TA98, Metabolic Activation: RAT, LIVER, S-9, AROCLOR 1254 (10 OR 30%), Method: PREINCUBATION) was “inactive; negative”. The mutagenic call runs as follows: (Test System: AMES SALMONELLA TYPHIMURIUM, Strain/Indicator: TA100, Metabolic Activation: HAMSTER, LIVER, S-9, AROCLOR 1254 (10 OR 30%), Method: PREINCUBATION) “inactive; negative”; (Test System: AMES SALMONELLA TYPHIMURIUM, Strain/Indicator: TA100, Metabolic Activation: NONE, Method: PREINCUBATION) “inactive; negative”; (Test System: AMES SALMONELLA TYPHIMURIUM, Strain/Indicator: TA100, Metabolic Activation: RAT, LIVER, S-9, AROCLOR 1254 (10 OR 30%), Method: PREINCUBATION) “inactive; negative”; (Test System: AMES SALMONELLA TYPHIMURIUM, Strain/Indicator: TA1535, Metabolic Activation: RAT, LIVER, S-9, AROCLOR 1254 (5%), Method: STANDARD PLATE) “active; positive”; (Test System: AMES SALMONELLA TYPHIMURIUM, Strain/Indicator: TA1535, Metabolic Activation: RAT, LIVER, S-9, AROCLOR 1254 (5,10%), Method: PREINCUBATION) “active; positive”; under setting [10], “active; positive. reevaluation of results: equivocal”. Besides, under “Test System: MOUSE LYMPHOMA, Strain/Indicator: L5178Y (TK+/TK-), Metabolic Activation: RAT, LIVER, S-9, AROCLOR 1254, Method: SUSPENSION/PLATE”, the mutagenic call was “active; positive. reevaluation of results: positive”.
For the compound `O=c1ccc2cc3cc4cccc5ccc(c2c1)c3c54`, the mutagenic call was “inactive; negative” under setting [1], “inactive; negative” under setting [8] and “active; positive” under setting [9].
For `COc1cc([C@@H]2c3cc4c(cc3[C@@H](O[C@@H]3O[C@@H]5CO[C@@H](c6cccs6)O[C@H]5[C@H](O)[C@H]3O)[C@H]3COC(=O)[C@H]23)OCO4)cc(OC)c1O`, the mutagenic call is “inactive; negative” (Test System: MOUSE LYMPHOMA, Strain/Indicator: L5178Y (HPRT)/6-THIOGUANINE, Metabolic Activation: NONE, Method: FLUCTUATION TEST); “active; positive” (Test System: MOUSE LYMPHOMA, Strain/Indicator: L5178Y (TK+/TK-), Metabolic Activation: NONE); “active; positive” (Test System: MOUSE LYMPHOMA, Strain/Indicator: L5178Y (TK+/TK-), Metabolic Activation: NONE, Method: FLUCTUATION TEST); “active; positive” under setting [10].

The values are drawn from PubChem BioAssay AID1259407 (Chemical Carcinogenesis Research Information System (CCRIS), 2018).
